In patent US5162336A, “Tetrahydro-pyrido-indoles as cholecystokinin and gastrin antagonists” (Rhone-Poulenc Rorer Pharmaceuticals Inc., priority 1990, dated 1992):
One block for each compound: values may come before it.

Tests used:
[1] = target: T1, CCK-A receptor (Rattus norvegicus, UniProt P30551); experiment: CCK-A receptor binding assay (displacement of 3H-L-364,718 from rat pancreas membranes); parameters: species or system Sprague-Dawley rat; settings: 3H-L-364,718 0.2 nM, 37° C., 30 min, read-out: In vitro Binding Data IC50 CCK
T1 construct: from tissue; host or cells: pancreas membranes of Sprague-Dawley rat
T1 sequence (P30551 1-444): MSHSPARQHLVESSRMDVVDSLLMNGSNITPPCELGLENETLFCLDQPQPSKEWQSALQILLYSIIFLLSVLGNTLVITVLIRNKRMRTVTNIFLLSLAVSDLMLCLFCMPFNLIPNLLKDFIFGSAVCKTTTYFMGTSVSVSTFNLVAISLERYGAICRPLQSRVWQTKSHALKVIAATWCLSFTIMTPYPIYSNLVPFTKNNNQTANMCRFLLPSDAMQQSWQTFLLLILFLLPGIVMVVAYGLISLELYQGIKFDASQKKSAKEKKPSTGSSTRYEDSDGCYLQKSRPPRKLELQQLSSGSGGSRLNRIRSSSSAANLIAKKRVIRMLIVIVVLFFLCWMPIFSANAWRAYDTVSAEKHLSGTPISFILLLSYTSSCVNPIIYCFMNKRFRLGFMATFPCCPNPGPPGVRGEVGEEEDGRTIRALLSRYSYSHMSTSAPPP
Description: Washer Buffer (for use with Brandel Cell Harvester):
30 liters of 50 mM Tris, ph 7.7: Dissolve 181.7 g. Tris base in 4 1. deionized water at room temperature. Adjust pH to 7.7 with 6 N HCl and Q.S. to 30 1.
50 mM Tris-Cl, 5 mM MgCl2, 5 mM dithio-thretiol, 0.14 mg/ml bacitracin, and 2 mg/ml bovine serum albumin.
1 liter of 5X stock buffer:
30.28 g. Tris base per 800 ml D.I. water 5.09 g. MgCl2 6 H2 O, pH to 7.7 at room temperature with 6N HCl and Q.S. 1 liter, store at 4° C.
250 ml working buffer kept on ice:
50 ml of 5X stock buffer 0.1928 g. dithiothretiol (5 mM), 35 mg bacitracin (0.14 mg/ml), and 0.5 g. BSA (2mg/ml).
Unlabeled L-364,718(nonpeptide ligand):
Unlabeled L-364,718 (300 nM final concentration) is used to define nonspecific binding. A 3 mM solution is made in absolute ethanol and stored in a scintillation vial at -70° C. Aliquots are diluted 100-fold in the assay.
A Sprague-Dawley rat is sacrificed by asphyxiation with carbon dioxide and the pancreas removed. The tissue is immersed in cold wash buffer and carefully trimmed of fat, connective tissue, blood vessels, blotted and weighed. The tissue is homogenized in a Sorvall SS-34 centrifuge tube in 50 volumes of wash buffer using a Polytron at setting 7 for 15 seconds. The tissue is centrifuged (Sorvall SS-34) at 19,000 rpm for 10 min. The supernatant is poured off and the pellet resuspended in sufficient buffer to obtain a contraction of 40 mg tissue wet weight/ml. Separate aliquots (2,3ml) are placed in each of 8 centrifuge tubes and centrifuged as before. The supernatants are poured off and the pellets stored at -70° C. Stored pellets are sufficient for the assay of 160 tubes and are stable for 1-2 months.
During the assay the stored membranes are resuspended in 40 ml of assay buffer by scraping the pellet off the wall of the centrifuge tube and washing it into a teflon-glass homogenizer. Membranes are resuspended by 5 passes with the teflon pestle and the membranes stored on ice until ready for use.
Preparation of Compounds:
Compounds are prepared in DMSO (dimethyl sulfoxide) or in assay buffer. The majority of structures active as CCK antagonists generally require DMSO for complete solubility. Approximately 2-3 mg of compound is weighed directly into a 13×100 mm test tube and sufficient DMSO added to obtain a working stock solution at a concentration 100 fold greater than the highest concentration being tested in the assay. A total of 10 μl of each concentration of drug is added into a final volume of 1 ml to yield a 100 fold dilution of the, working stock solution. Control binding tubes ("totals and nonspecifics") are also treated with 10 μl DMSO.
^3 H-L-364,718 is obtained from New England Nuclear (Cat. #971) and is used as supplied. The final assay concentration of ^3 H-L-364,718 in assay buffer should be 0.2 nM in a final assay volume of 1 ml. ^3 H-L-364,718 (0.2 pmol) is added into the assay in a volume of 25 μl (8 nM working stock solution). The required dilution (usually>1000 fold) is obtained by dividing the working stock concentration into the concentration of the specific lot.
Samples are prepared in triplicate and a "total" (buffer addition) and "nonspecific" (300 nM unlabeled L-364,718) set of tubes included in each set of 24 tubes. The remaining 6 sets of triplicates are used either for screening or IC50 determinations. The order of addition is drugs-DMSO, buffer, unlabeled L-364,718, ^3 H-L-364,718, and to start the assay, membranes.
While tubes are incubating a shaking water bath at 37° C. for 30 min Brandel deposit/dispense filters are presoaked in wash buffer. Following the end of the incubation, sets of 24 tubes are rapidly washed with assay buffer as follows. Assay buffer is added to the incubation tubes to the height of the uppermost cross support in the standard Brandel test tube rack and the contents immediately aspirated. This process is repeated twice more, the filter removed, marked and the next set of 24 tubes processed. […]

[2] = target: T2, Gastrin receptor (Cavia porcellus, UniProt H0VZC5); experiment: Gastrin receptor binding assay (displacement of 125I-(Leu-15)-Gastrin from guinea pig fundic glands); parameters: species or system guinea pig (Hartley Strain); settings: guinea pig fundic mucosa glands, 25° C., 30 min, read-out: In vitro Binding Data IC50 Gastrin
T2 construct: The fundic mucosa is gently scraped off the submucosa; from tissue; host or cells: gastric glands from fundic mucosa of Hartley guinea pig
T2 sequence (H0VZC5 1-426): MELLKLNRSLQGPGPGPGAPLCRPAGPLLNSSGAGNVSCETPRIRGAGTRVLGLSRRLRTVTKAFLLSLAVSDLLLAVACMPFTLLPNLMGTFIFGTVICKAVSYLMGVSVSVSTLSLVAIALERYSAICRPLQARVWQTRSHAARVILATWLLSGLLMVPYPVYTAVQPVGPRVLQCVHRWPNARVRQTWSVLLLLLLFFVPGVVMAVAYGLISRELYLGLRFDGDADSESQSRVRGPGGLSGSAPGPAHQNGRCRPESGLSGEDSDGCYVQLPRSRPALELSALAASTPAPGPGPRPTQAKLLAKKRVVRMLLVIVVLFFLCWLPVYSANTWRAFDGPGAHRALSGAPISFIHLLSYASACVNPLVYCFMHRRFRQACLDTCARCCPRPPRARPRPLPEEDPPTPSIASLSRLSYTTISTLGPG
Description: (a) Phosphate Buffered Saline (PBS): 8.743 g NaCl, 523 mg K2 HPO4 and 76.8 mg NaH2 PO4 is dissolved in 1.0 liter of deionized water and the pH of the solution is adjusted to 7.3 with 5N NaOH.
(b) Buffer A: While adding Basal Medium Eagle (BME) containing Earle's Salts, L-glutamine and 25 mM HEPES, 3 liters of deionized water is stirred, followed by the addition and dissolution of […] of sodium bicarbonate. The solution is then equilibrated with 95% O2 /5% CO2 gas followed by titration to a pH of 7.4 with NaOH.
(c) Buffer B: 18.75 mg of collagenase and […] of BSA is dissolved in 25 ml of Buffer A.
(d) Buffer C: 0.3 g of BSA is dissolved in 300 ml of Buffer A.
(e) 6.25 mg Bacitracin is dissolved in 25 ml of Buffer A.
(f) ^125 I-(Leu-15)-Gastrin: 100 microcurie dissolved in 2.0 ml of Buffer A to make 50 microcurie/ml.
(g) ^125 I-(15-methionine)-Human Gastrin: 50 microcurie/ml.
(h) (Leu 15)-Gastrin: 5.2 mg of (Leu-15)- Gastrin is dissolved in 10 ml of Buffer A. At the time of assay 1:10 dilution is made and 10 μl assay tube is used.
A guinea pig (Hartley Strain) weighing 150-200 grams, is sacrificed by CO2 asphyxiation and the stomach immediately excised, cut along the greater curvature, cleaned out and immediately immersed in a beaker containing cold PBS, pH 7.3, to insure thorough cleaning. The fundic mucosa is gently scraped off the submucosa and added to a preweighed 50 ml plastic centrifuge tube containing 30 ml of cold Buffer A. The weight of the plastic centrifuge tube containing the buffer is then subtracted from the combined weight of the mucosa and the buffer-containing tube to give the weight of the mucosa. The weight of the mucosa thus determined is recorded for later calculations.
The mucosa is then washed twice in Buffer A. After the final wash, the tissue is minced and is placed in a 100-ml glass beaker containing about 1.0 ml of Buffer A, and washed twice again by repeated centrifugation at 50×g for 5 minutes each and aspiration of supernatant. The washed tissue fragments are then added to a glass Erlenmeyer flask containing 25 ml of Buffer B and incubated in a Dubnoff shaking water bath at 37° C. for 30 minutes in a 95% O2 - 5% CO2 atmosphere. After the incubation, the digested tissue fragments in the Collegenase-buffer solution are triturated, filtered through a 200-micron nylon mesh and centrifuged at 50×g for 5 minutes. The supernatant is aspirated and discarded, the tissue washed 2× in Buffer C, resuspended in same buffer, incubated in a 37° C. water bath in an atmosphere of 95% O2 - 5% CO2 for 5 minutes, and centrifuged. The pelleted glands are suspended in Buffer D at a desired concentration of 2x10^5 glands/ml to use in the receptor binding assay.
Six minisorp tubes (16×100 mm) are serially marked and divided into two groups thus: tubes #1, #2, and #3 are marked "T" for "Totals" and tubes #4, #5, and #6 are marked "NS" for "Non-Specifics." Into each of the six tubes are added 220 μl of prepared glands in Buffer D; 20 μl of Buffer A in tubes #1, #2, and #3; 10 μl, in tubes #4, #5 and #6; (10μ of (Leu-15)-Gastrin (25 μM) in tubes #4, #5, and #6. The six tubes are then transferred immediately to a 25° C. water bath and challenged each with 10 μl ^125 I-(Leu-15)-Gastrin diluted as per calculation. The tubes are then covered with a gas hood connected to a 95% O2 - 5% CO2 gas source and mechanically agitated in a shaker for 30 minutes.
At the end of the incubation period, the assay mixtures are each filtered through a Whatman glass fiber filter B on a Brandel tissue harvester and washed twice with Buffer A. The filters are pre-soaked in Buffer C before use. The filter strips are removed after the final wash and individual filters counted in a Gamma Counter. The counts from the "Non-Specific" tubes are then averaged and subtracted from the average "Totals" to give the Specific Counts. […]

[3] = tested on: peripherial gastrin and CCK-B (brain) receptors; settings: cited from earlier work
[4] = tested on: CCK-A (peripheral CCK) receptor; settings: second generation proglumide analogues; cited from earlier work
[5] = tested on: gastrin receptor; settings: cited from earlier work
[6] = tested on: gastrin receptor; settings: cited from earlier work; remark: listed apart in the source
[7] = tested on: gastrin; settings: rat (in vivo); cited from earlier work

IC50 [1]: 25 µM
Compound: NC(=O)[C@H](CC(=O)OCc1ccccc1)NC(=O)[C@H]1Cc2c([nH]c3ccccc23)CN1C(=O)c1ccccc1 [Example 7, N-[(3R)-2-benzoyl-1,2,3,4-tetrahydro-9H-pyrido[3,4-b]indole-3-carboxyl]-L-aspartic acid amide β-benzyl ester]

IC50 [2]: 90 µM
Compound: COc1ccc(NC(=O)N2Cc3[nH]c4ccccc4c3C[C@@H]2C(=O)Nc2ccccc2C(=O)N2CCCC2)cc1 [Example 21, pyrrolidine-2-N-[(3R)-2-(4-methoxyphenylcarbamoyl)-1,2,3,4-tetrahydro-9H-pyrido[3,4-b]indole-3-carboxyl]aminobenzamide]

IC50 [2]: 0.23 µM
Compound: NC(=O)[C@H](CC(=O)O)NC(=O)[C@@H]1CCCN1C(=O)[C@H]1Cc2c([nH]c3ccccc23)CN1C(=O)Nc1ccc(Cl)c(Cl)c1 [Example 25]

IC50 [2]: 4 µM
Compound: CC(C)C[C@@H](NC(=O)[C@@H]1Cc2c([nH]c3ccccc23)CN1C(=O)Nc1ccc(Cl)c(Cl)c1)C(=O)N[C@H](CC(=O)O)C(N)=O [Example 71]

Compound: Cc1cccc(NC(=O)N[C@@H]2N=C(c3ccccc3)c3ccccc3N(C)C2=O)c1 [L-365,260]
selectivity for peripheral gastrin and CCK-B (brain) receptors [3]: selective for the peripherial gastrin and CCK-B (brain) receptors

Compound: CCCCCN(CCCCC)C(=O)C(CCC(=O)O)NC(=O)c1ccc(Cl)c(Cl)c1 (centres unmarked) [Lorglumide]
receptor affinity and selectivity [4]: considerably better receptor affinity and selectivity

Compound: CCCCCN(CCCOC)C(=O)C(CCC(=O)O)NC(=O)c1ccc(Cl)c(Cl)c1 (centres unmarked) [Loxiglumide]
receptor affinity and selectivity [4]: considerably better receptor affinity and selectivity

Compound: Boc-Trp-Leu-.PSI.(CH2 NH)-Asp-Phe-NH2
binding affinity ([5]; compared with Boc-Trp-Leu-Asp-Phe-NH2): same binding affinity as Boc-Trp-Leu-Asp-Phe-NH2
agonist activity [6]: no agonist activity

Compound: Boc-Trp-Leu-gAsp-m(R,S)Phe-NH2
binding to the gastrin receptor ([5]; analogues of CCK-4 with partial retroinverso modifications): bind strongly
block the effects of gastrin [7]: block the effects of gastrin
